{
  "source": "patent US20140039050A1",
  "about": "“METHOD FOR […] INFECTION IN A FE[…]” (priority 2011, published 2014)",
  "type_in_all_cases": "cell-based",
  "key": {"yeasts": {"test_system": "yeasts", "assay": "Serial dilution and cultivation on Petri films after exposure of yeast cream solution (Method 1), yeasts", "conditions": "exposure +30° C. 30 minutes, incubated +30° C. 48 hours", "experimental": "(§1) Total viable bacteria and viable yeasts in the samples herein were measured as colony forming units (CFU) per unit of volume (i.e., CFU/ml). The viability of yeasts and their ability to reproduce were measured by using a microscopical method, where specific dye (erythrosine) was used to visualize the amount and form (live, dead, budding) of yeast cells.\n(§2) The yeast cream samples (recovered from the wine, through a centrifuge) were diluted with lake water in a ratio of 30%+70%, respectively. The diluted yeast cream samples (later on called yeast cream solutions) were exposed to varying concentrations of performic acid in the equilibrium solution as follows: 49.5 ppm, 74.3 ppm and 99 ppm. In a control sample, no performic acid was added to the yeast cream solution. The effect of performic acid on bacteria was determined by one method (method 1), and on yeast cells by two methods (methods 1 and 2).\n(§3) The exposed samples and the control sample were held in +30° C. for 30 minutes, after which the amount of survived microbes was enumerated. The method used was a Serial dilution and cultivation method, where the effect of performic acid on the yeast cream solution was measured via dilution and cultivation of the sample after the exposure, to enumerate the amount of microbial growth. This method entail the dilution of each is sample by a factor large enough to enable clear separation of individual microbial colonies on Petri™ films (from 3M); thus allowing the colonies to be individually counted. Where diluted samples had been applied and inoculated in, the Petri™ films were incubated at +35° C. for 48 hours (bacteria) or at +30° C. for 48 hours (yeasts)."}, "yeast cells": {"test_system": "yeast cells", "assay": "Neubauer chamber microscopy with erythrosine dye (Method 2), yeast cell count, viability and budding", "conditions": "exposure +30° C. 5 hours; for Reproductive yeast cells %: budding cells over total living cells; for CFU/ml Yeasts 48 h, Neubauer count: total yeast cells; for Yeast cell viability %: viable cells over total cells (live+dead)", "experimental": "as §1, §2\nThe exposed samples and the control sample were held in +30° C. for 5 hours, after which the specific parameters of yeast cells were measured. These parameters included the amount of living yeast cells, dead yeast cells and budding yeast cells (i.e. reproducing yeast cells). The method used was a standard method, commonly adopted by Brazilian Sugar Cane Industry mills. In the method, a Neubauer chamber was filled with approximately 10 μl of the exposed sample, where the erythrosine dye had been mixed in. On the cover slip, a drop of immersion oil was added, and the above mentioned yeast cell parameters were evaluated by using an immersion objective (100×) of the microscope. The cells that presented pink coloration were counted as dead cells, and uncolored cells as living cells. The budding cells were determined on the basis of the shape of the yeast cell.\nThe total amount of the yeast cells was counted and compared to the result obtained with Method 1. Results are provided in Table 1 (Neubauer count of yeast cells). The cell viability indicates the percentage of viable cells over total cells (live+dead). The cell reproductive % indicates the percentage of budding cells over total living cells."}, "bacteria": {"test_system": "bacteria", "assay": "Serial dilution and cultivation on Petri films after exposure of yeast cream solution (Method 1), bacteria", "conditions": "exposure +30° C. 30 minutes, incubated +35° C. 48 hours", "experimental": "as §1, §2, §3"}, "[1]": {"conditions": "49.5 ppm performic acid in yeast cream solution"}, "[2]": {"conditions": "74.3 ppm performic acid in yeast cream solution"}, "[3]": {"conditions": "99 ppm performic acid in yeast cream solution"}},
  "data": [
    {"molecule": "O=COO", "note": "[performic acid]", "values": [
      {"measurement": "CFU/ml Yeasts 48 h, MIC", "setting": "yeasts; [1]", "result": "1 000 000 000 CFU/ml"},
      {"measurement": "CFU/ml Yeasts 48 h, MIC", "setting": "yeasts; [2]", "result": "6 100 000 000 CFU/ml"},
      {"measurement": "CFU/ml Yeasts 48 h, MIC", "setting": "yeasts; [3]", "result": "1 000 000 000 CFU/ml"},
      {"measurement": "Reproductive yeast cells %", "setting": "yeast cells; [1]", "result": 6.8, "unit": "%"},
      {"measurement": "CFU/ml Yeasts 48 h, Neubauer count", "setting": "yeast cells; [1]", "result": "380 000 000 CFU/ml"},
      {"measurement": "Yeast cell viability %", "setting": "yeast cells; [1]", "result": 71.1, "unit": "%"},
      {"measurement": "Reproductive yeast cells %", "setting": "yeast cells; [2]", "result": 8.9, "unit": "%"},
      {"measurement": "CFU/ml Yeasts 48 h, Neubauer count", "setting": "yeast cells; [2]", "result": "400 000 000 CFU/ml"},
      {"measurement": "Yeast cell viability %", "setting": "yeast cells; [2]", "result": 72.1, "unit": "%"},
      {"measurement": "Reproductive yeast cells %", "setting": "yeast cells; [3]", "result": 4.1, "unit": "%"},
      {"measurement": "CFU/ml Yeasts 48 h, Neubauer count", "setting": "yeast cells; [3]", "result": "640 000 000 CFU/ml"},
      {"measurement": "Yeast cell viability %", "setting": "yeast cells; [3]", "result": 72.3, "unit": "%"},
      {"measurement": "CFU/ml Bacteria 48 h, MIC", "setting": "bacteria; [1]", "result": 60, "unit": "CFU/ml"},
      {"measurement": "CFU/ml Bacteria 48 h, MIC", "setting": "bacteria; [2]", "result": 70, "unit": "CFU/ml"},
      {"measurement": "CFU/ml Bacteria 48 h, MIC", "setting": "bacteria; [3]", "result": 30, "unit": "CFU/ml"}
    ]}
  ]
}
